Laboratory results from patent US9676754B2, “Triazolone compounds and uses thereof” (Inception 2, Inc., priority 2012, dated 2017).

Each molecule was assayed against T1, Human PPARα (Homo sapiens, UniProt Q07869) (assay: Human PPARα Reporter Assay (luciferase)). Conditions: antagonist activity, luciferase reporter cells, overnight incubation; read-out: Human PPARα Reporter Assay-Luciferase IC50.
T1 construct: host or cells: proprietary non-human mammalian cells
T1 sequence (Q07869 1-468): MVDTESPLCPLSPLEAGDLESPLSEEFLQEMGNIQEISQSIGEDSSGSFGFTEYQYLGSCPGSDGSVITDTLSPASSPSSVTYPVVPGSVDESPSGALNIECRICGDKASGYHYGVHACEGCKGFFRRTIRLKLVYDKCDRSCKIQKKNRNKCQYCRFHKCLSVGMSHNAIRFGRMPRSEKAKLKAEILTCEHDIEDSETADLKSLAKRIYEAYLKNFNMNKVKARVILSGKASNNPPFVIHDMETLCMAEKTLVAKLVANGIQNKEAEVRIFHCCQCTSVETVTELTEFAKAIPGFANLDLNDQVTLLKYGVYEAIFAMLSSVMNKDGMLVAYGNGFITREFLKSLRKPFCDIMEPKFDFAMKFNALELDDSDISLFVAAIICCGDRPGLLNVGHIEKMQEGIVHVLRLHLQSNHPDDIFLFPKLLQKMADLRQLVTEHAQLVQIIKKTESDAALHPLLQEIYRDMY
Type: cell-based
Experimental: Human PPARα Reporter Assay
The screening of test compounds for agonist or antagonist activities against human PPARα receptors was performed using a commercial kit, Human PPARα Reporter Assay System (Indigo Biosciences, Cat. #IB00111).
This nuclear receptor assay system utilizes proprietary non-human mammalian cells engineered to provide constitutive, high-level expression of Human PPARα. Because these cells incorporate a PPARα-responsive luciferase reporter gene, quantifying expressed luciferase activity provides a sensitive surrogate measure of PPARα activity in the treated cells. The primary application of this reporter assay system is in the screening of test samples to quantify any functional activity, either agonist or antagonist, that they may exert against human PPARα. […] Briefly, the reporter cells are dispensed into wells of the assay plate and then immediately dosed with test compounds. Following an overnight incubation, the treatment media are discarded and Luciferase Detection Reagent (LDR) is added. The intensity of light emission from the ensuing luciferase reaction provides a sensitive measure that is directly proportional to the relative level of PPARα activation in the reporter cells.

| IC50 | Compound |
| --- | --- |
| 346 nM | CCn1c(CCCc2cccc(-c3cccc(CC(=O)O)c3)c2)nn(Cc2ccc(C(C)(C)C)cc2)c1=O [Example 1, 2-(3′-(3-(1-(4-(tert-Butyl)benzyl)-4-ethyl-5-oxo-4,5-dihydro-1H-1,2,4-triazol-3-yl)propyl)-[1,1′-biphenyl]-3-yl)acetic acid] |
| 324 nM | CCn1c(CCCc2cccc(-c3ccc(CC(=O)O)cc3)c2)nn(Cc2ccc(C(C)(C)C)cc2)c1=O [Example 2, 2-(3′-(3-(1-(4-(tert-Butyl)benzyl)-4-ethyl-5-oxo-4,5-dihydro-1H-1,2,4-triazol-3-yl)propyl)-[1,1′-biphenyl]-4-yl)acetic acid] |
| 1330 nM | CCn1c(CCCc2cccc(-c3cccc(C(=O)O)c3)c2)nn(Cc2ccc(C(C)(C)C)cc2)c1=O [Example 3, 3′-(3-(1-(4-(tert-Butyl)benzyl)-4-ethyl-5-oxo-4,5-dihydro-1H-1,2,4-triazol-3-yl)propyl)-[1,1′-biphenyl]-3-carboxylic acid] |
| 110 nM | CCn1c(CCCc2cccc(-c3ccc(C(=O)O)cc3)c2)nn(Cc2ccc(C(C)(C)C)cc2)c1=O [Example 4, 3′-(3-(1-(4-(tert-Butyl)benzyl)-4-ethyl-5-oxo-4,5-dihydro-1H-1,2,4-triazol-3-yl)propyl)-[1,1′-biphenyl]-4-carboxylic acid] |
| 137 nM | CCOc1ccc(-c2cccc(CCCc3nn(Cc4ccc(C(C)(C)C)cc4)c(=O)n3CC)c2)cc1C1(C(=O)O)CC1 [Example 5, 1-(3′-(3-(1-(4-(tert-Butyl)benzyl)-4-ethyl-5-oxo-4,5-dihydro-1H-1,2,4-triazol-3-yl)propyl)-4-ethoxy-[1,1′-biphenyl]-3-yl)cyclopropanecarboxylic acid] |
| 77 nM | CCn1c(CCCc2cccc(-c3cccc(C4(C(=O)O)CC4)c3)c2)nn(Cc2ccc(C(C)(C)C)cc2)c1=O [Example 7, 1-(3′-(3-(1-(4-(tert-Butyl)benzyl)-4-ethyl-5-oxo-4,5-dihydro-1H-1,2,4-triazol-3-yl)propyl)-[1,1′-biphenyl]-3-yl)cyclopropanecarboxylic acid] |
| 487 nM | CCn1c(CCCc2cccc(-c3ccc(C4(C(=O)O)CC4)cc3)c2)nn(Cc2ccc(C(C)(C)C)cc2)c1=O [Example 8, 1-(3′-(3-(1-(4-(tert-Butyl)benzyl)-4-ethyl-5-oxo-4,5-dihydro-1H-1,2,4-triazol-3-yl)propyl)-[1,1′-biphenyl]-4-yl)cyclopropanecarboxylic acid] |
| 548 nM | CCn1c(CCCc2cccc(-c3ccc(OC)c(C(=O)O)c3)c2)nn(Cc2ccc(C(C)(C)C)cc2)c1=O [Example 9, 3′-(3-(1-(4-(tert-Butyl)benzyl)-4-ethyl-5-oxo-4,5-dihydro-1H-1,2,4-triazol-3-yl)propyl)-4-methoxy-[1,1′-biphenyl]-3-carboxylic acid] |
| 211 nM | CCOc1ccc(-c2cccc(CCCc3nn(Cc4ccc(C(C)(C)C)cc4)c(=O)n3CC)c2)cc1C(=O)O [Example 10, 3′-(3-(1-(4-(tert-Butyl)benzyl)-4-ethyl-5-oxo-4,5-dihydro-1H-1,2,4-triazol-3-yl)propyl)-4-ethoxy-[1,1′-biphenyl]-3-carboxylic acid] |
| 48 nM | CCCOc1ccc(-c2cccc(CCCc3nn(Cc4ccc(C(C)(C)C)cc4)c(=O)n3CC)c2)cc1CC(=O)O [Example 11, 2-(3′-(3-(1-(4-(tert-Butyl)benzyl)-4-ethyl-5-oxo-4,5-dihydro-1H-1,2,4-triazol-3-yl)propyl)-4-propoxy-[1,1′-biphenyl]-3-yl)acetic acid] |
| 302 nM | CCn1c(CCCc2cccc(-c3ccc(NS(=O)(=O)c4ccccc4)cn3)c2)nn(Cc2ccc(C(C)(C)C)cc2)c1=O [Example 12, N-(6-(3-(3-(1-(4-(tert-Butyl)benzyl)-4-ethyl-5-oxo-4,5-dihydro-1H-1,2,4-triazol-3-yl)propyl)phenyl)pyridin-3-yl)benzenesulfonamide] |
| 197 nM | CCn1c(CCCc2cccc(-c3ccc(OC)c(CC(=O)O)c3)c2)nn(Cc2ccc(C(C)(C)C)cc2)c1=O [Example 13, 2-(3′-(3-(1-(4-(tert-Butyl)benzyl)-4-ethyl-5-oxo-4,5-dihydro-1H-1,2,4-triazol-3-yl)propyl)-4-methoxy-[1,1′-biphenyl]-3-yl)acetic acid] |
| 234 nM | CCn1c(CCCc2cccc(-c3ccc(C)c(C4(C(=O)O)CC4)c3)c2)nn(Cc2ccc(C(C)(C)C)cc2)c1=O [Example 14, 1-(3′-(3-(1-(4-(tert-Butyl)benzyl)-4-ethyl-5-oxo-4,5-dihydro-1H-1,2,4-triazol-3-yl)propyl)-4-methyl-[1,1′-biphenyl]-3-yl)cyclopropanecarboxylic acid] |
| 122 nM | CCn1c(CCCc2cccc(-c3ccc(OCc4ccccc4)c(CC(=O)O)c3)c2)nn(Cc2ccc(C(C)(C)C)cc2)c1=O [Example 15, 2-(4-(Benzyloxy)-3′-(3-(1-(4-(tert-butyl)benzyl)-4-ethyl-5-oxo-4,5-dihydro-1H-1,2,4-triazol-3-yl)propyl)-[1,1′-biphenyl]-3-yl)acetic acid] |
| 141 nM | CCn1c(CCCc2cccc(-c3ccc(OCC4CC4)c(CC(=O)O)c3)c2)nn(Cc2ccc(C(C)(C)C)cc2)c1=O [Example 16, 2-(3′-(3-(1-(4-(tert-Butyl)benzyl)-4-ethyl-5-oxo-4,5-dihydro-1H-1,2,4-triazol-3-yl)propyl)-4-(cyclopropylmethoxy)-[1,1′-biphenyl]-3-yl)acetic acid] |
| 83 nM | CCn1c(CCCc2cccc(-c3ccc(F)c(CC(=O)O)c3)c2)nn(Cc2ccc(C(C)(C)C)cc2)c1=O [Example 17, 2-(3′-(3-(1-(4-(tert-Butyl)benzyl)-4-ethyl-5-oxo-4,5-dihydro-1H-1,2,4-triazol-3-yl)propyl)-4-fluoro-[1,1′-biphenyl]-3-yl)acetic acid] |
| 750 nM | CCOc1ccc(CC(=O)O)cc1-c1cccc(CCCc2nn(Cc3ccc(C(C)(C)C)cc3)c(=O)n2CC)c1 [Example 18, 2-(3′-(3-(1-(4-(tert-Butyl)benzyl)-4-ethyl-5-oxo-4,5-dihydro-1H-1,2,4-triazol-3-yl)propyl)-6-ethoxy-[1,1′-biphenyl]-3-yl)acetic acid] |
| 119 nM | CCCOc1ccc(-c2cccc(CCCc3nn(Cc4ccc(C(C)(C)C)cc4)c(=O)n3CC)c2)cc1C(=O)O [Example 19, 3′-(3-(1-(4-(tert-Butyl)benzyl)-4-ethyl-5-oxo-4,5-dihydro-1H-1,2,4-triazol-3-yl)propyl)-4-propoxy-[1,1′-biphenyl]-3-carboxylic acid] |
| 896 nM | CCn1c(CCCc2cccc(-c3cccc(CNS(=O)(=O)c4ccccc4)c3)c2)nn(Cc2ccc(C(C)(C)C)cc2)c1=O [Example 20, N-((3′-(3-(1-(4-(tert-Butyl)benzyl)-4-ethyl-5-oxo-4,5-dihydro-1H-1,2,4-triazol-3-yl)propyl)-[1,1′-biphenyl]-3-yl)methyl)benzenesulfonamide] |
| 610 nM | CCn1c(CCCc2cccc(-c3ccc(OC)c(CCC(=O)O)c3)c2)nn(Cc2ccc(C(C)(C)C)cc2)c1=O [Example 21, 3-(3′-(3-(1-(4-(tert-Butyl)benzyl)-4-ethyl-5-oxo-4,5-dihydro-1H-1,2,4-triazol-3-yl)propyl)-4-methoxy-[1,1′-biphenyl]-3-yl)propanoic acid] |
| 64 nM | CCOc1ccc(-c2cccc(C(F)(F)CCc3nn(Cc4ccc(C(C)(C)C)cc4)c(=O)n3CC)c2)cc1CC(=O)O [Example 22, 2-(3′-(3-(1-(4-(tert-Butyl)benzyl)-4-ethyl-5-oxo-4,5-dihydro-1H-1,2,4-triazol-3-yl)-1,1-difluoropropyl)-4-ethoxy-[1,1′-biphenyl]-3-yl)acetic acid] |
